Test results as given in patent publication US20110319384A1, “Pharmaceutical Compositions” (priority 2005, published 2011).
Read-outs that look alike come from different tables or passages of the source.

Tests used:
[1] = system: patients with treatment resistant major depression; test: Example 24: augmentation of antidepressant therapy, quetiapine versus lithium, 56 days
Method: The study compared tolerability and efficacy. […] Lithium was initiated at 600 mg/day, and maintained over Week 1 and 2 and subsequently adjusted to attain a level of 0.8-1.2 mmol/L. Lithium levels were taken weekly.
A total of 20 patients were randomized to 1 of the 2 treatment groups. The study population included men and women aged 18-65 years, with a diagnosis of major depression according to DSM-IV, Hamilton Depression Rating Scale (HAM-D)≧20 and a Clinical Global […] (CGI) score ≧4.
Patients were evaluated at baseline and then on days 7, 14, 28, 42, and 56 using the HAM-D, Montgomery-Asberg […] (MADRS), SAS, and Widlocher Psychomotor Retardation Scale.

[2] = system: patients with Social Anxiety Disorder (SAD)
patients with GAD [3] = details: hypothesis to be tested
[4] = system: patients with treatment-resistant depression; test: Example 32: 8-week double-blind randomized placebo-controlled study, quetiapine added to SSRI/SNRI
From the text: Pregnant or lactating women, or those who were planning on becoming pregnant were not allowed to participate either. Participation in a clinical research study within 90 days of the start of this study also precluded applicants from participating. […] The primary efficacy endpoint for this study was HAM-D score at Week 8. Secondary endpoints included: (1) response (≧50% reduction in HAM-D score) and remission (HAM-D score <7) rates; (2) final Montgomery-Asberg Rating Scale score (MADRS); (3) CGI-S scores; and (4) CGI-I scores. Efficacy was assessed at baseline, then at Weeks 1, 2, 3, 4, 6, and 8. Adverse events (AEs) were also monitored.

[5] = system: patients with major depression with prominent anxiety symptoms; test: Example 33: double-blind randomized 8-week study, quetiapine augmentation of SSRIs/SNRIs
Method: Patients were also evaluated according to the CGI-S scale for severity, the Global Assessment scale (GAS) and for adverse events (AEs). Patients were evaluated at baseline and at Weeks 1, 2, 4, 6, and 8. Response was defined as a ≧50% reduction in HAM-D or HAM-A total scores from baseline to Week 8. Remission was defined as a HAM-D or HAM-A total score of 7 or lower at Week 8.
In order to be included in the study, patients had to have a DSM-IV diagnosis of major depression (HAM-D score ≧18), a CGI-S score ≧4, and a HAM-A score ≧14. […] Patients who had: (1) a current CNS disorder; (2) significant hepatic, renal or gastrointestinal impairment; (3) acute, unstable or significant and untreated medical conditions; (4) current substance abuse or dependence; or (5) were at risk for suicide were excluded. Pregnant or breast-feeding women were excluded also.

patients with GAD [6] = details: hypothesis to be tested; remark: listed apart in the source
[7] = system: patients with treatment resistant or non-remitted GAD
From the text: The study population was limited to GAD patients who had not remitted following at least 8 weeks of therapeutic doses of conventional therapy. Conventional therapy includes treatment with one of the following: citalopram, escitalopram, paroxetine, paroxetine CR, venlafaxine XR, sertraline, mirtazapine, fluoxetine, fluvoxamine, or no medication at all. Each patient provided informed consent and was observed on an outpatient basis.
The study population was comprised of patients between the ages of 22 and 61. Forty-eight percent of the study population was male and fifty-two percent was female. […] Patients with other psychiatric disorders, subjective suicidal tendencies, a Montgomery-Asberg Depression Rating Scale (MADRS) score >19, or serious medical conditions were excluded from the study. In addition, pregnant or lactating women and those who took medications prohibited by the study design (e.g., psychoactive substances and oral antipsychotics) within 2 weeks of the original screening were also excluded.
The mean change from baseline to Week 12 in HAM-A total scores was the primary endpoint. […] These additional efficacy assessments were all measured from baseline to Week 12.

[8] = system: patients with refractory depression (RD); test: Example 29: Cognitive Behavior Therapy (CBT) plus quetiapine or placebo
[9] = system: outpatient adults with SRI-resistant OCD
[10] = system: patients with residual anxiety and depression despite SSRI treatment
[11] = system: elderly patients with MDD and CV damage
[12] = add-on to antidepressant, mean doses quetiapine 430 mg/day, lithium 825 mg/day
[13] = depressive symptoms in GAD, vs placebo
[14] = patient satisfaction, vs placebo
[15] = response rate vs placebo, Day 57
[16] = adjunct to conventional therapy
[17] = adjunct to conventional therapy, mean dose 386 mg/day
[18] = add-on to antidepressants, mean dose 300 mg/day

OCCOCCN1CCN(C2=Nc3ccccc3Sc3ccccc32)CC1 [quetiapine, 11-[4-[2-(2-hydroxyethoxy)ethyl]-1-piperazinyl]-dibenzo[b,f][1,4]thiazepine]
Widlocher Psychomotor Retardation Scale mean baseline score ([1]; add-on to antidepressant): about 30 | Widlocher Psychomotor Retardation Scale mean score after treatment ([1]; add-on to antidepressant): about 7 | mean MADRS score after Day 7 up to Day 56 (end value) ([1]; add-on to antidepressant): about 8 | mean MADRS score, start value 'After Day 7' ([1]; add-on to antidepressant): about 38 | mean HAM-D score at Day 56 [1, 12]: about 5 | mean HAM-D score, start value of 'From Day 7 to 56' [1, 12]: about 26 | patients in remission (HAM-D) ([1]; after 56 days): about 80% | patients who responded (MADRS) ([1]; after 56 days): Eighty | patients who responded to treatment (HAM-D) ([1]; after 56 days): about 80% | patients who achieved remission (MADRS) ([1]; at 56 days): Eighty | SAS scale scores versus baseline ([1]; in vivo): decreased scores from baseline | BSPS scores versus placebo at baseline or endpoint ([2]; in vivo): no significant differences | SPIN or SDI scores versus placebo at baseline or endpoint ([2]; in vivo): no significant difference | mean CGI-I scores at endpoint versus placebo ([2]; in vivo): no significant difference | most frequent side effects ([2]; in vivo): drowsiness, dizziness, and nausea | serious adverse events ([2]; in vivo): No serious adverse events were reported | patients who scored a 1 or 2 on the CGI-I scale ([2]; placebo 0%): 40% | patients experiencing a ≧50% drop in BSPS score at endpoint compared with baseline ([2]; placebo 0%, mean final dose 147 mg twice a day): 20% | Adverse events of nausea or vomiting (patients with GAD [3]; compared to escitalopram): lower levels of nausea and | Incidence of withdrawals due to adverse events (patients with GAD [3]; compared to escitalopram): Quetiapine has similar | Sexual dysfunction: change from randomization in CSFQ total score at Day 57 (patients with GAD [3]; compared to escitalopram): lower levels of sexual | Somnolence: severity of AEs, time of first instance, withdrawals due to AE of somnolence (patients with GAD [3]; compared to placebo): generally mild, occurs early in | Change from randomization in HAM-A total score, HAM-A psychic cluster, HAM-A somatic cluster and CGI-S score at Day 4 (patients with GAD [3]; compared to placebo, Day 4): anti-anxiety effect by Day 4 | Change from randomization in MADRS total score at Day 57 (patients with GAD [3]; [13]): Quetiapine is more effective | Adverse events related to discontinuation; change in Discontinuation-Emergent Signs and Symptoms total score at Day 64 and Day 71 (patients with GAD [3]; discontinuation symptoms): Quetiapine does not have | Change from normal to Clinically Important in Physical Examinations; Laboratory values; Vital signs; ECGs (patients with GAD [3]; once daily up to 300 mg/day): 300 mg/day is safe and well | Change from randomization in Q-les-Q Item 15 (Satisfaction with medication) at Day 57 (patients with GAD [3]; [14]): Quetiapine is more effective | Change from randomization in Q-les-Q total score and Q-les-Q Item 16 (Overall life satisfaction) at Day 57 (patients with GAD [3]; quality of life, vs placebo): Quetiapine is more effective | HAM-A Response (decrease from randomization total score of = 50%) at Day 4 (patients with GAD [3]; response rate vs placebo, Day 4): Quetiapine has a greater | HAM-A Response (decrease from randomization total score of = 50%) at Day 57 (patients with GAD [3]; [15]): Quetiapine has a greater | Adverse events of nausea or vomiting (patients with GAD [3]; vs placebo): placebo levels of nausea and | Adverse events related to EPS (including akathisia); change in SAS and BARS scores at Day 57 (patients with GAD [3]; vs placebo): placebo levels of EPS | HAM-A Remission (HAM-A total score = 7) at Day 57 (patients with GAD [3]; vs placebo): Quetiapine is better than | Sexual dysfunction: change from randomization in CSFQ total score at Day 57 (patients with GAD [3]; vs placebo): placebo levels of sexual | Change from randomization in CGI-S score, CGI-I (much or very much improved), HAM-A psychic and somatic clusters at Day 57 (patients with GAD [3]; vs placebo, across anxiety symptoms): Quetiapine is more effective | mean HAM-D score at study end ([4]; added to SSRI/SNRI, Week 8, placebo about 15): about 8 | mean MADRS score at study end ([4]; added to SSRI/SNRI, placebo about 24): about 15 | mean weight gain ([4]; in vivo): about 6 kg | most common side effects ([4]; in vivo): fatigue, dry mouth, and sedation/somnolence | patients who withdrew from the study due to serious adverse events ([4]; in vivo): No patients | tolerability ([4]; in vivo): generally well-tolerated | final mean CGI-I score ([4]; placebo 3.5): 2.5 | final mean CGI-S score ([4]; placebo 3.8): 2.8 | patients who achieved remission (HAM-D score <7) ([4]; placebo 15%): 43% | patients who responded to treatment (≧50% reduction in HAM-D score) ([4]; placebo 27%): 67% | mean HAM-A score at baseline ([5]; added to SSRI/SNRI): about 23 | mean HAM-D score at baseline ([5]; added to SSRI/SNRI): about 23 | mean HAM-A score after treatment ([5]; added to SSRI/SNRI, 8 weeks): about 10 | mean HAM-D score after treatment ([5]; added to SSRI/SNRI, 8 weeks): about 12 | mean improvement from baseline in HAM-A scores ([5]; added to SSRI/SNRI, 8 weeks, placebo about 5): about 13 | mean improvement from baseline in HAM-D scores ([5]; added to SSRI/SNRI, 8 weeks, placebo about 5, mean dose 202 mg/day): about 11 | CGI-S and GAS assessments ([5]; in vivo): significantly more effective than placebo | serious AEs ([5]; in vivo): no serious AEs were reported | patients with an increase in bodyweight ≧5 kg ([5]; no patients in the placebo group): 6 patients | remission rate as assessed by HAM-A (total score of 7 or lower at Week 8) ([5]; placebo 17%): 41% | remission rate as assessed by HAM-D (total score of 7 or lower at Week 8) ([5]; placebo 17%): 31% | response rate as assessed by HAM-A (≧50% reduction to Week 8) ([5]; placebo 28%): 62% | response rate as assessed by HAM-D (≧50% reduction to Week 8) ([5]; placebo 28%): 48% | Somnolence: severity of AEs, time of first instance, withdrawals due to AE of somnolence (patients with GAD [6]; compared to placebo): generally mild, occurs early in | Change from randomization in MADRS total score at Day 57 (patients with GAD [6]; [13]): Quetiapine is more effective | Adverse events related to discontinuation; change in Discontinuation-Emergent Signs and Symptoms total score at Day 64 and Day 71 (patients with GAD [6]; discontinuation symptoms): Quetiapine does not have | Change from normal to Clinically Important in Physical Examinations; Laboratory values; Vital signs; ECGs (patients with GAD [6]; once daily up to 300 mg/day): 300 mg/day is safe and well | Change from randomization in Q-les-Q Item 15 (Satisfaction with medication) at Day 57 (patients with GAD [6]; [14]): Quetiapine is more effective | Change from randomization in HAM-A total score, HAM-A psychic cluster, HAM-A somatic cluster and CGI-S score at Day 8 (patients with GAD [6]; patients with GAD, Day 8): anti-anxiety effect by Day 8 | Change from randomization in Q-les-Q total score and Q-les-Q Item 16 (Overall life satisfaction) at Day 57 (patients with GAD [6]; quality of life, vs placebo): Quetiapine is more effective | HAM-A Response (decrease from randomization total score of ≧50%) at Day 8 (patients with GAD [6]; response rate vs placebo, Day 8): Quetiapine has a greater | HAM-A Response (decrease from randomization total score of ≧50%) at Day 57 (patients with GAD [6]; [15]): Quetiapine has a greater | Adverse events of nausea or vomiting (patients with GAD [6]; vs placebo): placebo levels of nausea and | Adverse events related to EPS (including akathisia); change in SAS and BARS scores at Day 57 (patients with GAD [6]; vs placebo): placebo levels of EPS | HAM-A Remission (HAM-A total score ≦7) at Day 57 (patients with GAD [6]; vs placebo, Day 57): Quetiapine is better than | Change from randomization in CGI-S score, CGI-I (much or very much improved), HAM-A psychic cluster and HAMA somatic cluster at Day 57 (patients with GAD [6]; vs placebo, across anxiety symptoms, Day 57): Quetiapine is more effective | Dysfunctional Beliefs and Attitudes about Sleep Scale (DBAS) mean at Week 12 [7, 16]: about 73 | Dysfunctional Beliefs and Attitudes about Sleep Scale (DBAS) mean at baseline [7, 16]: about 88 | PSQI (sleep quality) baseline mean [7, 16]: about 17 | PSQI (sleep quality) mean in Week 12 [7, 16]: about 7 | Penn State Worry Questionnaire (PSWQ) mean at Week 12 [7, 16]: about 44 | Penn State Worry Questionnaire (PSWQ) mean at baseline [7, 16]: about 53 | mean HAM-A total score after 12 weeks of treatment [7, 17]: about 9 | mean HAM-A total score at baseline [7, 17]: about 30 | improvement in mean Sheehan Disability Inventory (SDI) scores (work, family, social interactions) ([7]; baseline to Week 12): about 2 | mean total weight gain and BMI ([7]; baseline to Week 12): slight increases | patients who entered the study reporting sedation as an adverse event ([7]; in vivo): Forty | serious adverse events ([7]; in vivo): no serious adverse events were reported | vital signs or laboratory assessments ([7]; in vivo): no clinically significant changes | patients who withdrew due to adverse events ([7]; of 50 patients eligible for inclusion): seven | patients who withdrew because of sedation ([7]; of the patients withdrawn for adverse events): five | lack of response drop-outs ([8]; 50% drop-out rate in the CBT+placebo arm): no lack of response drop-outs | all primary efficacy measures (MADRS, HAM-D) ([8]; CBT 12 weekly sessions, quetiapine up to 200 mg twice a day, no significant reductions with CBT+placebo): significantly reduced | most common side effect ([8]; in vivo): Somnolence | serious adverse events ([8]; in vivo): No serious adverse events were observed | study survivability (at least 4 or more CBT sessions prior to withdrawal) ([8]; in vivo): increased study survivability | tolerability ([8]; in vivo): generally well-tolerated | mean MADRS score at baseline ([9]; added to SRI): about 19 | mean MADRS score at trial end ([9]; added to SRI): about 15 | mean Y-BOCS score at baseline, the 5 patients that responded ([9]; added to SRI): about 30 | mean Y-BOCS score after treatment, the 5 patients that responded ([9]; added to SRI, 8 weeks): about 17 | patients who responded to treatment (≧25% decrease in Y-BOCS score at endpoint) ([9]; added to SRI, final mean dosage about 169 mg/day): Five of the 16 | most common adverse events ([9]; in vivo): Sedation and fatigue | patients who withdrew because of an adverse event ([9]; in vivo): 1 patient | severity of adverse events ([9]; in vivo): generally mild | mean HAM-A score after 9 weeks of treatment ([10]; added to stable SSRI): about 6 | mean HAM-A score at baseline ([10]; added to stable SSRI): about 25 | mean HAM-D score after 9 weeks of treatment ([10]; added to stable SSRI): about 6 | mean HAM-D score at baseline ([10]; added to stable SSRI): about 20 | mean State Anxiety Inventory (SAI) score after 9 weeks of treatment ([10]; added to stable SSRI): about 30 | mean State Anxiety Inventory (SAI) score at baseline ([10]; added to stable SSRI): about 51 | BARS or SAS scores ([10]; in vivo): no clinically relevant changes | discontinuation as a result of an adverse event ([10]; in vivo): no patient discontinued therapy | most common side effects ([10]; in vivo): Drowsiness, mild dry mouth, and constipation | reduction in scores, HAM-A individual subjects analysis ([10]; in vivo): ≥ 50% | serious adverse events ([10]; in vivo): No serious adverse events occurred | weight gain ([10]; in vivo): minimal for all patients but one | mean CGI-S score after 6 months ([11]; add-on to antidepressants): about 5 | mean CGI-S score at baseline ([11]; add-on to antidepressants): about 6 | mean HAM-D score after 6 months [11, 18]: about 15 | mean HAM-D score at baseline [11, 18]: about 27 | discontinuation of the study ([11]; in vivo): No patients discontinued the study | side effects reported ([11]; the only side effects reported): Sedation and drowsiness
